This note sets out measurements from US6156774A, “Beta-thiopropionyl-amino acid derivatives and their use as beta-lactamase inhibitors” (SmithKline Beecham P.L.C., priority 1996, dated 2000).

Where only a bound is given, the exact number is not on record here.

Sequence of B. fragilis CfiA metallo-β-lactamase (P25910 19-249): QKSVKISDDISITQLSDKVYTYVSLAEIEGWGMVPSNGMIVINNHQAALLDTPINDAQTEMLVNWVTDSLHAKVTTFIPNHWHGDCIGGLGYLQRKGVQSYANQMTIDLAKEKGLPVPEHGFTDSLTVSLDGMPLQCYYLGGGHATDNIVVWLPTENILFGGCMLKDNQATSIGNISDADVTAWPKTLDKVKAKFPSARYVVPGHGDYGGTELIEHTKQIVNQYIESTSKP

The subject of one assay is Bacteroides fragillis 262 strain, which produces CfiA metallo-β-lactamase. Kind of assay: Antibacterial activity (MIC) in combination with meropenem. The assay is classed as cell-based. To be noted: read-out: MIC of compound alone. An excerpt: Antibacterial activity of compounds of the invention in combination with the carbapenem antibiotic, meropenem, against the Bacteroides fragillis 262 strain, which produces CfiA metallo-β-lactamase:
[MIC=minimum inhibitory concentration (μg/ml)]
In the case of `O=C(NC(C(=O)O)c1ccc(Cc2ccccc2)s1)C(CS)CCc1ccccc1` (centres unmarked) [Example 24, 2-[(5-Benzyl)thien-2-yl]-N-[2-(mercaptomethyl)-4-phenylbutyryl]glycine], the MIC is more than 256 µg/mL.

As for `O=C(NC(C(=O)O)c1ccc(CC2CCOC2)s1)C(CS)CCc1ccccc1` (centres unmarked) [Example 26, 2-[5-(Tetrahydrofuran-3-ylmethyl)thien-2-yl]-N-[2-(mercaptomethyl)-4-phenylbutyryl]glycine], the MIC was more than 256 µg/mL.

`O=C(NC(C(=O)O)c1cccc(Oc2ccccc2)c1)C(CS)CCc1ccccc1` (single isomer, unassigned) [Example 4, N-(2'-mercaptomethyl-4'-phenylbutanoyl)-m-phenoxy-phenylglycine]: the MIC was more than 256 µg/mL.

The same assay, now with this note: read-out: MIC of meropenem alone.
For `C[C@@H](O)[C@H]1C(=O)N2C(C(=O)O)=C(S[C@@H]3CN[C@H](C(=O)N(C)C)C3)[C@H](C)[C@H]12` [meropenem, reference compound], the minimal inhibitory concentration (MIC) was more than 128 µg/mL.

In another assay the target is B. fragilis CfiA metallo-β-lactamase (Bacteroides fragilis, UniProt P25910). The assay can be described thus: I50 screen, nitrocefin reporter substrate. As to conditions: 25 mM PIPES pH 7, 37° C., nitrocefin 91 μM, 5 minute preincubation, Zn2+ 100 μM; read-out: I50 against B. fragilis CfiA metallo-β-lactamase. Format: biochemical. Here is the method:
The inhibitory activity of the compounds of the invention was measured in 25 mM PIPES pH 7 buffer at 10 concentrations (1000, 333, 111, 37, 12.3, 4.1, 1.4, 0.46, 0.15 and 0.05 μM) at 37° C. using nitrocefin (91 μM final concentration) as the reporter substrate. The assays were performed with a 5 minute preincubation of enzyme and inhibitor and were conducted in the presence of added zinc sulphate (Zn^2+ 100 μM, final concentration). the methodology is described in detail in the following references: Payne et al (1991), J. Antimicrob. Chemother., 28:255; Payne et al (1994), Antimicrob. Agents and Chemother., 38:767.
Regarding `O=C(NC(C(=O)O)c1ccc(Cc2ccccc2)s1)C(CS)CCc1ccccc1` (racemic) [34 (more polar isomer), 2-[(5-Benzyl)thien-2-yl]-N-[2-(mercaptomethyl)-4-phenylbutyryl]glycine], the IC50 is less than 1000 nM.

As for `O=C(N[C@@H](C(=O)O)c1ccc(OCc2cccs2)cc1)C(CS)CCc1ccccc1` (single isomer, unassigned) [Example 21, N-(2'-mercaptomethyl-4'-phenylbutanoyl)-p-(2"-thienylmethoxy)-D-phenylglycine], the IC50 is less than 1000 nM.

In the case of `O=C(NC(C(=O)O)c1cccc(Oc2ccccc2)c1)C(CS)CCc1ccccc1` (single isomer, unassigned) [Example 3, N-(2'-mercaptomethyl-4'-phenylbutanoyl)-m-phenoxy-phenylglycine], the IC50 was less than 1000 nM.

With `O=C(N[C@@H](C(=O)O)c1ccc(OCc2ccccc2)cc1)C(CS)CCc1ccccc1` (single isomer, unassigned) [Example 19, N-(2'-mercaptomethyl-4'-phenylbutanoyl)-p-benzyloxy-D-phenylglycine], the IC50 is less than 1000 nM.

Take `CN(C)c1ccc(CCOc2ccc([C@@H](NC(=O)C(CS)CCc3ccccc3)C(=O)O)cc2)cc1` (single isomer, unassigned) [Example 66, N-(2'-mercaptomethyl-4'-phenylbutanoyl)-p-(p-dimethylamino)-phenethyloxy-D-phenylglycine]: the IC50 is less than 1000 nM.

On to `CN(C)c1ccc(COc2ccc([C@@H](NC(=O)C(CS)CCc3ccccc3)C(=O)O)cc2)cc1` (single isomer, unassigned) [Example 48, N-(2'-mercaptomethyl-4'-phenylbutanoyl)-p-(p-dimethylamino)-benzyloxy-D-phenylglycine], for which the IC50 was less than 1000 nM.

In the case of `O=C(N[C@@H](C(=O)O)c1ccc(OCc2ccc(OCc3ccccc3)cc2)cc1)C(CS)CCc1ccccc1` (single isomer, unassigned) [Example 69, N-(2'-mercaptomethyl-4'-phenylbutanoyl)-p-(p-benzyloxy)-benzyloxy-D-phenylglycine], the IC50 was less than 1000 nM.

Turning to `C[n+]1cccc(COc2ccc([C@@H](NC(=O)C(CS)CCc3ccccc3)C(=O)[O-])cc2)c1` (stereo partly drawn) [Example 67, N-(2'-RS-mercaptomethyl-4'-phenylbutanoyl)-p-(N-methyl-3-pyridiniummethoxy)-D-phenylglycine], the IC50 is less than 1000 nM.

As to `O=C(O)c1cccc(COc2ccc([C@@H](NC(=O)C(CS)CCc3ccccc3)C(=O)O)cc2)c1` (single isomer, unassigned) [Example 50, N-(2'-mercaptomethyl-4'-phenylbutanoyl)-p-(m-carboxy)-benzyloxy-D-phenylglycine], the IC50 is less than 1000 nM.

With `O=C(N[C@@H](C(=O)O)c1ccc(OCc2ccccn2)cc1)C(CS)CCc1ccccc1` (stereo partly drawn) [Example 56, N-(2'-RS-mercaptomethyl-4'-phenylbutanoyl)-p-(2-pyridylmethoxy)-D-phenylglycine], the IC50 was less than 1000 nM.

As to `O=C(N[C@@H](C(=O)O)c1ccc(OCc2ccc([N+](=O)[O-])cc2)cc1)C(CS)CCc1ccccc1` (single isomer, unassigned) [Example 53, N-(2'-mercaptomethyl-4'-phenylbutanoyl)-p-(p-nitro)-benzyloxy-D-phenylglycine], the IC50 is less than 1000 nM.

In the case of `O=C(NC(C(=O)O)c1cccc(Oc2ccccc2)c1)C(CS)CCc1ccccc1` (single isomer, unassigned) [Example 4, N-(2'-mercaptomethyl-4'-phenylbutanoyl)-m-phenoxy-phenylglycine], the IC50 was less than 1000 nM.

Turning to `O=C(N[C@@H](C(=O)O)c1ccc(OCc2ccncc2)cc1)C(CS)CCc1ccccc1` (stereo partly drawn) [Example 55, N-(2'-RS-mercaptomethyl-4'-phenylbutanoyl)-p-(4-pyridylmethoxy)-D-phenylglycine], the IC50 was less than 1000 nM.

The MIC is the lowest concentration that inhibits growth of the organism.
